The target of this experiment is T1, mouse TRPM3α2 (mTRPM3) ion channel (Mus musculus, UniProt J9SQF3).
T1 construct: expressed in transfected cells; host or cells: flip-in HEK293
Briefly: TRPM3 ion channel driven Ca2+ uptake (Fluo-4 AM assay, pregnenolone sulfate stimulated). Format: cell-based. Particulars: TRPM3 overexpressing flip-in HEK293 cells, channel opened with pregnenolone sulfate (PS) 50 μM, 2.4 mM Ca2+. The method, then: In order to monitor the inhibition of the mouse TRPM3α2 (mTRPM3) ion channel by the compounds of the invention, a cellular system making use of an mTRPM3alpha2 or hTRPM3 overexpressing cell line (flip-in HEK293) was used. The TRPM3 channel was stimulated/opened with Pregnenolone sulfate (PS) (50 μM) which results in Ca^2+ influx.
For mTRPM3, the intracellular Ca^2+ was measured with a Calcium responsive dye, Fluor-4 AM ester (Invitrogen). Cells were cultured until a confluence of 80-90%, washed with Versene (Invitrogen) and detached from the surface by a short incubation with 0.05% Trypsin (Invitrogen). The trypsination process was stopped by the addition of complete cell culture medium (DMEM, glutamax, 10% FCS, NEAA, Pen-Strep). Cells were collected and resuspended in Krebs buffer without Calcium at RT.
Prior the cell seeding (±2000 cells/well into a black, 384 well plate (Greiner)) the diluted compound was added in the assay plate, together with the PS dissolved in Krebs buffer containing Calcium. […] Directly after cell addition the plates were read on an Envision fluorescence reader (Perkin Elmer) by an Excitation of 485 nm and emission at 535 nm.
Channel inhibition was calculated compared to a non-PS stimulated control versus a condition stimulated with PS (50 μM) with vehicle. The ability of a the compounds of the invention to inhibit this activity was determined as: Percentage inhibition=[1−((RFU determined for sample with test compound present−RFU determined for sample with positive control inhibitor) divided by (RFU determined in the presence of vehicle−RFU determined for sample with positive control inhibitor))]*100.
The activities of the Example compounds […] tested are depicted in the table below. The activity ranges A, B and C refer to IC50 values in the Fluo-4 AM assay as follows: […]

T1 sequence (J9SQF3 1-1709 isoform J9SQF3-12): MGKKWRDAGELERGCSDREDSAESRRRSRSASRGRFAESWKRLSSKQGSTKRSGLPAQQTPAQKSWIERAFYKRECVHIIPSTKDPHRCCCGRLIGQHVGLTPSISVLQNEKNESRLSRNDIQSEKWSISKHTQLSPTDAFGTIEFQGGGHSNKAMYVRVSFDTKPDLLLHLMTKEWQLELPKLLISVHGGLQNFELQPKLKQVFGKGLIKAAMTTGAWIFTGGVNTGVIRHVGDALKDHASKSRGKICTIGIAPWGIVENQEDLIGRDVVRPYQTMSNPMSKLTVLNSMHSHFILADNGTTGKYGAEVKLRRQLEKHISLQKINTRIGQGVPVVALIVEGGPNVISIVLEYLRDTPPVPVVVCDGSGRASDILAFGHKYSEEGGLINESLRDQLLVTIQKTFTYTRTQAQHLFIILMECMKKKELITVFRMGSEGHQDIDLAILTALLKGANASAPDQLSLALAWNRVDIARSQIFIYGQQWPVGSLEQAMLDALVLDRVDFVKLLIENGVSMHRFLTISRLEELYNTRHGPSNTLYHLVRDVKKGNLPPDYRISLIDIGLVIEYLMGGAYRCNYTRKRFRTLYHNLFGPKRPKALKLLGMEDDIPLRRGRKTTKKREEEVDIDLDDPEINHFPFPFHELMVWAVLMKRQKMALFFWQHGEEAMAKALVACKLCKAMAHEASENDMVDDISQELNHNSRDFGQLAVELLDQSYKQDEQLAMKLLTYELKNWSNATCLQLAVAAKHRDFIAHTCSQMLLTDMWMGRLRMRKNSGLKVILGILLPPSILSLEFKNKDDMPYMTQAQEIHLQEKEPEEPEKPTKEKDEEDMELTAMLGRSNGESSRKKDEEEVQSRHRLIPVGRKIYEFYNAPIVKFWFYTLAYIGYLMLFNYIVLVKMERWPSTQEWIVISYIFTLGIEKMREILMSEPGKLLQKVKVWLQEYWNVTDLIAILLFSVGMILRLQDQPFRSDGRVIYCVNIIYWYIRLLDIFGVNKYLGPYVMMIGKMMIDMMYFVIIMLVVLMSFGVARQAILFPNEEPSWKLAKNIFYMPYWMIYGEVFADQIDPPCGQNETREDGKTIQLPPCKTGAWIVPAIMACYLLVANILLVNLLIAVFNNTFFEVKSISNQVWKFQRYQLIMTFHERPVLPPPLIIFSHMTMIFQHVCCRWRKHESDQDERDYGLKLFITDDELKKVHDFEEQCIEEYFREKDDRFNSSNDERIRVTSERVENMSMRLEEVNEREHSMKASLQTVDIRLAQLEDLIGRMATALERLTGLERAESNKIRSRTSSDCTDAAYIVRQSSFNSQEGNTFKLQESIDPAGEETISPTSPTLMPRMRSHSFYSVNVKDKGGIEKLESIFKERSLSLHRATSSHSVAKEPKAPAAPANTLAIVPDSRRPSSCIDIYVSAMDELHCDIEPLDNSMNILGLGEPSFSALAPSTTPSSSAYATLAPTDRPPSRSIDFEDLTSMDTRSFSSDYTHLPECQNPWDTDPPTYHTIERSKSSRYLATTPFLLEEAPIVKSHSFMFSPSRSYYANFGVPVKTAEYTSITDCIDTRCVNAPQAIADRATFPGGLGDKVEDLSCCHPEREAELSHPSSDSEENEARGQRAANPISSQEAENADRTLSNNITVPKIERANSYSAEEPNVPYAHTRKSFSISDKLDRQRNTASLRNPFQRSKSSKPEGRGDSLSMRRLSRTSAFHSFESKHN

`COc1ncccc1COc1ccc2cc(C)c(C(=O)NC(CO)CC(F)(F)F)n2c1` (single isomer, unassigned) [Cpd 043 - En1] showed an IC50 of under 1 µM.
Turning to `COc1ncccc1COc1ccc2cc(C)c(C(=O)NC(CO)CC(F)(F)F)n2c1` (single isomer, unassigned) [Cpd 043 - En2], the IC50 was over 20 µM.
`Cc1cc2ccc(OCc3cccnc3C(F)(F)F)cn2c1C(=O)NC(CO)CC(F)(F)F` (single isomer, unassigned) [Cpd 044 - En1]: the IC50 is over 20 µM.
For the molecule `Cc1cc2ccc(OCc3cccnc3C(F)(F)F)cn2c1C(=O)NC(CO)CC(F)(F)F` (single isomer, unassigned) [Cpd 044 - En2], the IC50 was under 1 µM.
For `Cc1cc2ccc(OCc3c(F)cnn3C)cn2c1C(=O)NC(CO)CC(F)(F)F` (single isomer, unassigned) [Cpd 045 - En1], the IC50 was in the range of 1 to 20 µM.
Then `Cc1cc2ccc(OCc3c(F)cnn3C)cn2c1C(=O)NC(CO)CC(F)(F)F` (single isomer, unassigned) [Cpd 045 - En2], with over 20 µM; and `Cc1cc2ccc(OCc3cnccn3)cn2c1C(=O)NC1(CO)CCNC1=O` (single isomer, unassigned) [Cpd 046 - En1], with under 1 µM; and `Cc1cc2ccc(OCc3cnccn3)cn2c1C(=O)NC1(CO)CCNC1=O` (single isomer, unassigned) [Cpd 046 - En2], with over 20 µM.
In turn, `Cc1cc2ccc(OCc3scnc3C)cn2c1C(=O)NC1(CO)CCOCC1` [Cpd 001, N-[4-(hydroxymethyl)oxan-4-yl]-2-methyl-6-[(4-methyl-1,3-thiazol-5-yl)methoxy]indolizine-3-carboxamide] gave an IC50 of 1 to 20 µM.
In the case of `Cc1cc2ccc(OCc3ccccc3F)cn2c1C(=O)N[C@@H](C)C(N)=O` [Cpd 002, (2S)-2-({6-[(2-fluorophenyl)methoxy]-2-methylindolizin-3-yl}formamido)propanamide], the IC50 was under 1 µM.
`Cc1cc2ccc(OCc3ccccc3F)cn2c1C(=O)N[C@@H](CO)C(N)=O` [Cpd 003, (2S)-2-({6-[(2-fluorophenyl)methoxy]-2-methylindolizin-3-yl}formamido)-3-hydroxypropanamide] had an IC50 of under 1 µM.
Take `Cc1cc2ccc(OCc3ccccc3F)cn2c1C(=O)NC(C)(CO)CO` [Cpd 006, N-(1,3-dihydroxy-2-methylpropan-2-yl)-6-[(2-fluorophenyl)methoxy]-2-methylindolizine-3-carboxamide]: the concentration for half-maximal inhibition (IC50) is under 1 µM.
Regarding `Cc1cc2ccc(OCc3ccccc3F)cn2c1C(=O)NC1CNCCC1(F)F` (stereo not drawn) [Cpd 008, N-(4,4-difluoropiperidin-3-yl)-6-[(2-fluorophenyl)methoxy]-2-methylindolizine-3-carboxamide], the 50% inhibitory concentration (IC50) is 1 to 20 µM.
Then `Cc1cc2ccc(OCc3ccccn3)cn2c1C(=O)NC(C)(CO)CO` [Cpd 015, N-(1,3-dihydroxy-2-methylpropan-2-yl)-2-methyl-6-[(pyridin-2-yl)methoxy]indolizine-3-carboxamide], with under 1 µM; and `Cc1cc2ccc(OCC3CC3)cn2c1C(=O)NC(C)(CO)CO` [Cpd 020, 6-(cyclopropylmethoxy)-N-(1,3-dihydroxy-2-methylpropan-2-yl)-2-methylindolizine-3-carboxamide], with under 1 µM; and `Cc1cc2ccc(OCC(F)F)cn2c1C(=O)NC(C)(CO)CO` [Cpd 025, 6-(2,2-difluoroethoxy)-N-(1,3-dihydroxy-2-methylpropan-2-yl)-2-methylindolizine-3-carboxamide], with 1 to 20 µM.
With `Cc1ncc(COc2ccc3cc(C)c(C(=O)NC(C)(CO)CO)n3c2)s1` [Cpd 030, N-(1,3-dihydroxy-2-methylpropan-2-yl)-2-methyl-6-[(2-methyl-1,3-thiazol-5-yl)methoxy]indolizine-3-carboxamide] the figure was under 1 µM.
`Cc1ncc(COc2ccc3cc(C)c(C(=O)NC(C)C(N)=O)n3c2)s1` (stereo not drawn) [Cpd 031, 2-({2-methyl-6-[(2-methyl-1,3-thiazol-5-yl)methoxy]indolizin-3-yl}formamido)propanamide]: the half-maximal inhibitory concentration (IC50) was in the range of 1 to 20 µM.

For the origin of these results see US20250376469A1, “INDOLIZINE DERIVATIVES FOR TREATING TRPM3-MEDIATED DISORDERS” (Katholieke Universiteit Leuven, priority 2022, published 2025).
